From patent US4888049A, “Synergist for biocide” (Kao Corporation, priority 1986, dated 1989) come the findings set out here.

The assay concerns Crabgrasses. The assay is described as follows: Herbicidal effect of Karmex D (DCMU) herbicide with or without compound 6 (Example 6). The format is in vivo, crabgrass. The following applies: compound 6, where added, 2000 ppm in the diluted solution. On the procedure:
Crabgrasses (30 crabgrasses per pot) which were in a trifoliate stage were treated with the above herbicide in a predetermined concentration. 7 days after the treatment, the weight of survival at the aerical part and the percentage herbicidal effect relative to the untreated section (%) were calculated. 50% herbicidal concentration was also determined.
The above-mentioned preparation was diluted with water to have a predetermined concentration.

The structures appear in SMILES notation.

As for `CCCCCCCCC(CCCCCC)C[N+](C)(C)Cc1ccc(Cl)cc1` (centres unmarked) [compound 6], the “herbicidal effect (%)” value was determined as 39% (active ingredient (DCMU) concn. 125 ppm); 55% (active ingredient (DCMU) concn. 250 ppm); 77% (active ingredient (DCMU) concn. 500 ppm); 91% (active ingredient (DCMU) concn. 1000 ppm); 100% (active ingredient (DCMU) concn. 2000 ppm).
